Assay results: the supplement of paper PMC10307832

Key:
Test in all cases: relative viability (nuclei count vs DMSO), 5 days (fraction); higher = more cells survive
Calu-6 = test system: Calu-6
In short: (§1)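 Five library-drug doses in √10 steps were combined with a fixed anchor-drug dose, or a single drug was given alone, by pin tool to lung cancer cell lines in 1536-well plates the day after seeding. Nuclei were stained and counted after 5 days. Relative viability is the nuclei count in treated wells over that in vehicle wells, taken as the median of duplicate plates.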

NCI-H1703 = test system: NCI-H1703
In short: as §1

NCI-H2228 = test system: NCI-H2228
In short: as §1

EMC-BAC-2 = test system: EMC-BAC-2
In short: as §1

NCI-H2009 = test system: NCI-H2009
In short: as §1

EBC-1 = test system: EBC-1
In short: as §1

NCI-H1299 = test system: NCI-H1299
In short: as §1

ABC-1 = test system: ABC-1
In short: as §1

IA-LM = test system: IA-LM
In short: as §1

A549 = test system: A549
In short: as §1

Cc1cn(-c2cc(NC(=O)c3ccc(C)c(Nc4nccc(-c5cccnc5)n4)c3)cc(C(F)(F)F)c2)cn1 [Nilotinib] + CS(=O)(=O)N1CCN(Cc2cc3nc(-c4cccc5[nH]ncc45)nc(N4CCOCC4)c3s2)CC1 [Pictilisib] (partner 1 µM)
relative viability (Calu-6; first compound 0.001 µM): 0.893
relative viability (Calu-6; first compound 0.003162 µM): 0.919
relative viability (Calu-6; first compound 0.01 µM): 1.06
relative viability (Calu-6; first compound 0.03162 µM): 0.864
relative viability (Calu-6; first compound 0.1 µM): 0.827
relative viability (NCI-H1703; first compound 0.001 µM): 0.225
relative viability (NCI-H1703; first compound 0.003162 µM): 0.291
relative viability (NCI-H1703; first compound 0.01 µM): 0.19
relative viability (NCI-H1703; first compound 0.03162 µM): 0.215
relative viability (NCI-H1703; first compound 0.1 µM): 0.196
relative viability (NCI-H2228; first compound 0.001 µM): 0.27
relative viability (NCI-H2228; first compound 0.003162 µM): 0.402
relative viability (NCI-H2228; first compound 0.01 µM): 0.31
relative viability (NCI-H2228; first compound 0.03162 µM): 0.356
relative viability (NCI-H2228; first compound 0.1 µM): 0.397
relative viability (EMC-BAC-2; first compound 0.001 µM): 0.528
relative viability (EMC-BAC-2; first compound 0.003162 µM): 0.538
relative viability (EMC-BAC-2; first compound 0.01 µM): 0.606
relative viability (EMC-BAC-2; first compound 0.03162 µM): 0.486
relative viability (EMC-BAC-2; first compound 0.1 µM): 0.479
relative viability (NCI-H2009; first compound 0.001 µM): 0.79
relative viability (NCI-H2009; first compound 0.003162 µM): 0.913
relative viability (NCI-H2009; first compound 0.01 µM): 0.958
relative viability (NCI-H2009; first compound 0.03162 µM): 0.655
relative viability (NCI-H2009; first compound 0.1 µM): 0.187
relative viability (EBC-1; first compound 0.003162 µM): 0.287
relative viability (EBC-1; first compound 0.01 µM): 0.313
relative viability (EBC-1; first compound 0.03162 µM): 0.289
relative viability (EBC-1; first compound 0.1 µM): 0.253
relative viability (NCI-H1299; first compound 0.001 µM): 0.611
relative viability (NCI-H1299; first compound 0.003162 µM): 1.12
relative viability (NCI-H1299; first compound 0.01 µM): 0.887
relative viability (NCI-H1299; first compound 0.03162 µM): 0.495
relative viability (NCI-H1299; first compound 0.1 µM): 0.396
relative viability (ABC-1; first compound 0.001 µM): 0.758
relative viability (ABC-1; first compound 0.003162 µM): 0.697
relative viability (ABC-1; first compound 0.01 µM): 0.788
relative viability (ABC-1; first compound 0.03162 µM): 0.619
relative viability (ABC-1; first compound 0.1 µM): 0.346
relative viability (IA-LM; first compound 0.001 µM): 0.36
relative viability (IA-LM; first compound 0.003162 µM): 0.431
relative viability (IA-LM; first compound 0.01 µM): 0.426
relative viability (IA-LM; first compound 0.03162 µM): 0.209
relative viability (IA-LM; first compound 0.1 µM): 0.41
relative viability (A549; first compound 0.003162 µM): 0.743
relative viability (A549; first compound 0.01 µM): 0.6
relative viability (A549; first compound 0.03162 µM): 0.368
relative viability (A549; first compound 0.1 µM): 0.374

Cc1cn(-c2cc(NC(=O)c3ccc(C)c(Nc4nccc(-c5cccnc5)n4)c3)cc(C(F)(F)F)c2)cn1 [Nilotinib] + C[C@]1(O)C[C@@H](c2nc(-c3ccc4ccc(-c5ccccc5)nc4c3)c3c(N)nccn32)C1 [Linsitinib] (partner 1 µM)
relative viability (Calu-6; first compound 0.001 µM): 0.819
relative viability (Calu-6; first compound 0.003162 µM): 1.06
relative viability (Calu-6; first compound 0.01 µM): 1.06
relative viability (Calu-6; first compound 0.03162 µM): 0.809
relative viability (Calu-6; first compound 0.1 µM): 0.828
relative viability (NCI-H1703; first compound 0.001 µM): 0.637
relative viability (NCI-H1703; first compound 0.003162 µM): 0.285
relative viability (NCI-H1703; first compound 0.01 µM): 0.343
relative viability (NCI-H1703; first compound 0.03162 µM): 0.218
relative viability (NCI-H1703; first compound 0.1 µM): 0.136
relative viability (NCI-H2228; first compound 0.001 µM): 0.578
relative viability (NCI-H2228; first compound 0.003162 µM): 0.862
relative viability (NCI-H2228; first compound 0.01 µM): 0.603
relative viability (NCI-H2228; first compound 0.03162 µM): 0.657
relative viability (NCI-H2228; first compound 0.1 µM): 0.623
relative viability (EMC-BAC-2; first compound 0.001 µM): 0.812
relative viability (EMC-BAC-2; first compound 0.003162 µM): 0.954
relative viability (EMC-BAC-2; first compound 0.01 µM): 1.1
relative viability (EMC-BAC-2; first compound 0.03162 µM): 0.66
relative viability (EMC-BAC-2; first compound 0.1 µM): 0.839
relative viability (NCI-H2009; first compound 0.001 µM): 1.07
relative viability (NCI-H2009; first compound 0.003162 µM): 1.28
relative viability (NCI-H2009; first compound 0.01 µM): 1.22
relative viability (NCI-H2009; first compound 0.03162 µM): 1.18
relative viability (NCI-H2009; first compound 0.1 µM): 1.15
relative viability (EBC-1; first compound 0.001 µM): 0.81
relative viability (EBC-1; first compound 0.003162 µM): 0.794
relative viability (EBC-1; first compound 0.01 µM): 1.14
relative viability (EBC-1; first compound 0.03162 µM): 0.791
relative viability (EBC-1; first compound 0.1 µM): 0.66
relative viability (NCI-H1299; first compound 0.001 µM): 0.91
relative viability (NCI-H1299; first compound 0.003162 µM): 1.1
relative viability (NCI-H1299; first compound 0.01 µM): 1.28
relative viability (NCI-H1299; first compound 0.03162 µM): 0.957
relative viability (NCI-H1299; first compound 0.1 µM): 0.762
relative viability (ABC-1; first compound 0.001 µM): 0.985
relative viability (ABC-1; first compound 0.003162 µM): 0.862
relative viability (ABC-1; first compound 0.01 µM): 0.724
relative viability (ABC-1; first compound 0.03162 µM): 0.683
relative viability (ABC-1; first compound 0.1 µM): 0.554
relative viability (IA-LM; first compound 0.001 µM): 0.382
relative viability (IA-LM; first compound 0.003162 µM): 0.31
relative viability (IA-LM; first compound 0.01 µM): 0.634
relative viability (IA-LM; first compound 0.03162 µM): 0.346
relative viability (IA-LM; first compound 0.1 µM): 0.216
relative viability (A549; first compound 0.001 µM): 0.778
relative viability (A549; first compound 0.003162 µM): 0.582
relative viability (A549; first compound 0.01 µM): 0.767
relative viability (A549; first compound 0.03162 µM): 0.535
relative viability (A549; first compound 0.1 µM): 0.286
